Read-outs that look alike come from different tables or passages of the source.
Columns and labels:
DLK = target: T1, DLK (Homo sapiens, UniProt Q12852); details: published kinase inhibitor profiles; cited from earlier work
T1 sequence (Q12852 1-859): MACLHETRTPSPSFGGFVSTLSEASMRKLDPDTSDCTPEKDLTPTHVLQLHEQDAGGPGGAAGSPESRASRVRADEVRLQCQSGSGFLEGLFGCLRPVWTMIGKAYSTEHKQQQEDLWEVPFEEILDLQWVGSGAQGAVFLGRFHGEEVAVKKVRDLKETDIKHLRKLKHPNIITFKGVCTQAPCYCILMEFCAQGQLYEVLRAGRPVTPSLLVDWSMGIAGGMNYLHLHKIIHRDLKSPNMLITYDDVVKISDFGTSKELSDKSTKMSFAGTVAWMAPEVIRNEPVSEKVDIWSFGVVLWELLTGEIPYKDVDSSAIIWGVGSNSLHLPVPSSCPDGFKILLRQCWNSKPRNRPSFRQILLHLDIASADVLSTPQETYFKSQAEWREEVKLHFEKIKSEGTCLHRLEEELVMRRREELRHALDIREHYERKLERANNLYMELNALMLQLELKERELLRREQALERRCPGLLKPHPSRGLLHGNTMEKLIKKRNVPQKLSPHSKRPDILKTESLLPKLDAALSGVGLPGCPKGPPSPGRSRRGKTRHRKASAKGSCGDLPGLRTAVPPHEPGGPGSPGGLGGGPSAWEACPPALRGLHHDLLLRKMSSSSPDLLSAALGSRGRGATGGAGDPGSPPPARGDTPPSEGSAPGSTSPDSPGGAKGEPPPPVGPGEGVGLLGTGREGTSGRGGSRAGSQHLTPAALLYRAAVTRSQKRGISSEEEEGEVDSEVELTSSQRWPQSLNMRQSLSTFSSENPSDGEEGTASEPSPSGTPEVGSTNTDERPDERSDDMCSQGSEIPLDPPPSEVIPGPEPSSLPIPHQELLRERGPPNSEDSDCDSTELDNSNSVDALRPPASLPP

primary RGCs = experiment: Survival of immunopanned primary RGCs in culture; details: for RGC survival / neuroprotective activity in culture: immunopanned RGCs, increasing doses, 72 hours in culture; for neuroprotective activity, RGC survival by CellTiter-Glo luminescence: murine purified RGCs, neurotrophin-depleted media, 72 hours, sunitinib as positive control
Protocol: All animal use was in accordance with ARVO Statement for the Use of Animals, and all the experimental procedures were performed in compliance with animal protocols approved by the IACUC at Johns Hopkins University. Retinas were isolated from postnatal 0-5 day mice and dissociated with papain. Microglia was immunodepleted with anti-CD11b conjugated Dynabeads. The suspension of retinal cells were immunopanned on plates pre-conjugated with anti-Thy1.2 antibody (Serotec, Raleigh, N.C.; MCA028) and goat anti-mouse IgM (Jackson Immunoresearch) at room temperature (RT). After washing, RGCs were released from the plate by a cell lifter, counted, and seeded at a density of 10,000 per well in 96-well plates in the media composed of Neurobasal, B27, N2 supplement, L-glutamine, and penicillin/streptomycin. After a 72 hour culture at 37° C., RGCs were stained with calcein AM, ethidium homodimer, and Hoechst 33342. Images were taken from portions of each well with Cellomics Kinetscan or Cellomics ArrayScan VTI HCS Readers (Thermo Fisher), and cell survival was quantified and calculated with the algorithms in Cellomics Neuroprofiling package. As indicated, RGC viability was alternatively measured by CellTiter-Glo luminescence (Promega, Fitchburg, Wis.).
For siRNA-based screening, the siRNAs from the Sigma Mission Mouse Kinome library were complexed with NeuroMag (Oz Biosciences, Marseille, France) at a final concentration of 20 nM. RGCs were then reverse transfected on a stationary magnet and assayed for survival 72 hours later using CellTiter-Glo (Promega). […] Confirmatory siRNAs were obtained from both Dharmacon (Lafayette, Colo.) and Ambion (Carlsbad, Calif.). Adenovirus expressing wildtype or kinase-dead DLK (Robitaille et al., 2004) was added to RGCs at a multiplicity of infection of 100-1000. For small molecule-based screening, serially diluted compounds in DMSO were transferred to 1536 well assay plates by a 23 nL pintool array (Kalypsys, San Diego, Calif.), with a final concentration of 0.057% DMSO for each respective compound concentration. RGCs were cultured for 48 h, and cell viability was analyzed on a plate reader (ViewLux, Perkin Elmer, Waltham, Mass.) using the bioluminescent CellTiterGlo (Promega, Fitchburg, Wis.) assay. Concentration response curves were created using CurveFit (NIH NCATS). The screened libraries include the modified Tocriscreen (1395 compounds) collection, FDA-approved drugs (2814 compounds), LOPAC (1208 compounds) and PTL2/PTL3 (based on pteridin, pyrimidine and quinazoline scaffolds; 2319 compounds).
In order to identify novel neuroprotective agents, a high-content, high-throughput, phenotypic screen was developed using primary RGCs. RGCs were immunopanned from perinatal mice using an antibody against the RGC surface antigen Thy1 (Barres et al., 1988), arrayed into microtiter (96- to 1536-well) plates, and cell survival in the presence of various bioactive small molecules was assayed 72 hours later.

optic nerve axons = experiment: Rat laser-induced ocular hypertension (glaucoma model), optic nerve axon counts; details: for reduction of optic nerve axon loss: intravitreal drug-eluting PLGA microspheres, pretreatment, at one month
Protocol: 6-week old male Wistar rats were anesthetized with ketamine/xylazine. A partial periotomy was made to expose the sclera. The injection site was approximately 1 mm posterior to the ora serrata, and the injection glass pipet was angled towards the optic disc in order to avoid lens injury. 5 μL (10 μg) of PLGA microspheres were injected with a glass pipet and Hamilton syringe.
Intraocular pressure (TOP) was unilaterally elevated by laser treatment of the trabecular meshwork as previously described (Levkovitch-Verbin, H. et al., 2002). Briefly, 6-week old Wistar male rats were anesthetized with ketamine/xylazine. On two consecutive weeks, 40-50 532 nm diode laser spots were applied to the prelimbal region (50 μm diameter, 600 mW power and 0.6 seconds duration). Under anesthesia, the IOP of laser-treated and fellow eyes was measured with TonoLab one and three days after laser treatment. Four weeks following laser treatment, rats were perfused with 4% paraformaldehyde in phosphate buffer. Optic nerves were isolated, postfixed with 1% osmium tetroxide, embedded in epoxy resin and stained with 1% toluidine blue. Images from 10 random and nonoverlapping fields were taken with 100× oil phase contrast objective. The area of entire optic nerve cross-sections were imaged with 10× magnification, and used with axon counts from the 10 field to derive axon counts per nerve. The laser treatment and acquisition of optic nerve images were performed in a masked fashion.
Sunitinib, or its vehicle control, were packaged in poly(lactic-co-glycolic acid) (PLGA)-based, slow-eluting microspheres (Edwards, 1997) and injected intravitreally into Wistar rats.

RGCs = experiment: Rat optic nerve transection, RGC survival; format: in vivo, Wistar rats
RGCs overexpressing DLK = experiment: Survival of RGCs transduced with DLK-expressing adenovirus in the presence of inhibitor; format: cell-based, mouse
Protocol: (§1) The shaded area indicates the toxic range for tozasertib; (B) Western blot of the DLK pathway members in RGCs 4 hours after immunopanning in the presence of 0, 0.03, 0.06, 0.125, 0.25, 0.5, 1 or 2 μM tozasertib; (C) survival of cultured RGCs 72 hours after transfection with DLK (dashed) or nontargeting siRNA (solid) in the presence of increasing doses of tozasertib; and (D) survival of cultured RGCs 48 hours after transduction with DLK expressing adenovirus in the presence of increasing doses of tozasertib. Error bars show standard deviation; and
(§2) Concentration response curves were created using CurveFit (NIH NCATS).

[1] = tested on: DLK signaling (phosphorylation of MKK7 and JNK); experiment: Western blot of DLK pathway members in RGCs; format: cell-based, mouse; details: RGCs 4 hours after immunopanning, concentrations that increase RGC survival
Protocol: as §1
Western blots were performed according to the standard protocol. The following antibodies were from Cell Signaling Technology (Beverly, Mass.): Phospho-JNK, Thr183/Tyr185 (4671); JNK (9258); Phospho-MKK7 (4171), and MKK7 (4172). Monoclonal anti-alpha-tubulin antibody (T6074) was purchased from Sigma (St. Louis, Mo.), βIII tubulin (TUJ1) from Covance, goat polyclonal Brn3 from C-13, and rabbit anti-Cre from Novus. DLK rabbit polyclonal was provided by S. Hirai.

[2] = tested on: DLK siRNA-transfected RGCs; experiment: Survival of RGCs transfected with DLK or control siRNA in the presence of inhibitor; format: cell-based, mouse; details: 72 hours after transfection, increasing doses
Protocol: as §1, §2

JNK1/2/3 = details: published kinase inhibitor profiling; cited from earlier work
MKK4/7 = details: published kinase inhibitor profiling; cited from earlier work

| Structure (SMILES) | binding to DLK (DLK) | RGC survival / neuroprotective activity in culture (primary RGCs) | neuroprotective activity, RGC survival by CellTiter-Glo luminescence (primary RGCs) | further results |
| --- | --- | --- | --- | --- |
| O=C(c1ccc(/C=C/c2n[nH]c3ccccc23)cc1)N1CCNCC1 [KW-2449] | reported to bind DLK | promoted the survival of primary RGCs in culture | neuroprotective activity | – |
| CN(C)S(=O)(=O)c1ccc2c(c1)/C(=C/c1cc3c([nH]1)CCCC3)C(=O)N2 [SU6656] | – | neuroprotective | – | – |
| COc1cc(N2CCC(N3CCN(C)CC3)CC2)ccc1Nc1ncc(Cl)c(Nc2ccccc2S(=O)(=O)C(C)C)n1 [TAE-684] | reported to bind DLK | – | – | toxicity in RGC culture (primary RGCs): limited by toxicity at nanomolar doses |
| CNC(=O)c1ccccc1Sc1ccc2c(/C=C/c3ccccn3)n[nH]c2c1 [axitinib] | reported to bind DLK | promoted the survival of primary RGCs in culture | neuroprotective activity | – |
| COc1cc(Nc2c(C#N)cnc3cc(OCCCN4CCN(C)CC4)c(OC)cc23)c(Cl)cc1Cl [bosutinib] | reported to bind DLK | promoted the survival of primary RGCs in culture | neuroprotective activity | – |
| COc1cc2nccc(Oc3ccc(NC(=O)C4(C(=O)Nc5ccc(F)cc5)CC4)cc3)c2cc1OC [cabozantinib] | – | – | neuroprotective activity | – |
| C[C@@H](Oc1cc(-c2cnn(C3CCNCC3)c2)cnc1N)c1c(Cl)ccc(F)c1Cl [crizotinib] | reported to bind DLK | promoted the survival of primary RGCs in culture | neuroprotective activity | – |
| Cc1nc(Nc2ncc(C(=O)Nc3c(C)cccc3Cl)s2)cc(N2CCN(CCO)CC2)n1 [dasatinib] | – | – | neuroprotective activity | – |
| COc1cc2c(Oc3ccc(NC(=O)C4(C(=O)Nc5ccc(F)cc5)CC4)cc3F)ccnc2cc1OCCCN1CCOCC1 [foretinib] | reported to bind DLK | promoted the survival of primary RGCs in culture | neuroprotective activity | – |
| Cc1ccc(NC(=O)c2ccc(CN3CCN(C)CC3)cc2)cc1Nc1nccc(-c2cccnc2)n1 [imatinib] | – | lack neuroprotective activity | – | – |
| C[C@]12O[C@H](C[C@]1(O)CO)n1c3ccccc3c3c4c(c5c6ccccc6n2c5c31)CNC4=O [lestautinib, lestaurtinib] | – | promoted the survival of primary RGCs in culture | – | – |
| CCOc1cc2ncc(C#N)c(Nc3ccc(OCc4ccccn4)c(Cl)c3)c2cc1NC(=O)/C=C/CN(C)C [neratinib] | reported to bind DLK | – | – | toxicity in RGC culture (primary RGCs): limited by toxicity at nanomolar doses |
| CNC(=O)c1cc(Oc2ccc(NC(=O)Nc3ccc(Cl)c(C(F)(F)F)c3)cc2)ccn1 [sorafenib] | – | lack neuroprotective activity | – | – |
| CCN(CC)CCNC(=O)c1c(C)[nH]c(/C=C2\C(=O)Nc3ccc(F)cc32)c1C [sunitinib] | – | – | – | reduction of optic nerve axon loss (optic nerve axons): 40%; increase in surviving RGCs compared to control animals (RGCs; intravitreal PLGA microspheres 7 days before transection, two weeks post-transection): 3-4 fold; toxicity in RGC culture (primary RGCs; primary RGCs in culture): cytotoxicity at high concentrations |
| Cc1cc(Nc2cc(N3CCN(C)CC3)nc(Sc3ccc(NC(=O)C4CC4)cc3)n2)[nH]n1 [tozasertib] | reported to bind DLK | promoted the survival of primary RGCs in culture | – | neuroprotection in glaucoma model (optic nerve axons; intravitreal PLGA microspheres / slow release formulation): protected RGCs; reduction of optic nerve axon loss (optic nerve axons): 39%; effect on toxicity / survival with adenoviral-overexpressed DLK (RGCs overexpressing DLK): right-shift of the tozasertib-survival dose-response curve; phosphorylation of targets downstream of DLK, including MKK7 and JNK [1]: decrease in the phosphorylation of targets downstream of DLK; surviving RGCs (RGCs; intravitreal PLGA microspheres 7 days before transection, two weeks after transection, vehicle 12.0%): 32.3%; protection of RGCs in optic nerve transection model (RGCs; intravitreal slow release formulation): protected RGCs; effect on survival of DLK siRNA-transfected RGCs [2]: left-shift of the tozasertib-survival dose-response curve; affinity for JNK (JNK1/2/3): does not have significant affinity; affinity for MKK4/7 (MKK4/7): does not have significant affinity; RGC survival / neuroprotective activity in culture (primary RGCs; listed as Tozasertib): significant neuroprotective activity |
| Clc1ccc(Nc2nnc(Cc3ccncc3)c3ccccc23)cc1 [vatalanib] | – | lack neuroprotective activity | – | – |
